Test results published in publication PMC10029208, “Isolation and functional verification of an aspartate aminotransferase gene from Neoporphyra haitanensis” (BMC Plant Biology, 2023).
Like-named read-outs stand apart in the source and are kept apart here.

Tests used:
NhAAT [1] = test system: T1, NhAAT; conditions: forward reaction; co-substrate 20 mM oxaloacetic acid; 50 µM PLP; 0.1 M sodium phosphate; optimal conditions pH 7.5, 45 °C; L-glutamic acid 0-100 mM
T1 construct: gene AAT

NhAAT [2] = test system: T2, NhAAT; assay: coupled malate dehydrogenase assay, NADH decrease at […] nm, double reciprocal plot; assay type: biochemical, Neoporphyra haitanensis; conditions: reverse reaction; co-substrate 20 mM α-ketoglutarate; 50 µM PLP; 0.1 M sodium phosphate; optimal conditions pH 7.5, 45 °C; L-aspartic acid 0-100 mM
T2 construct: gene AAT; E. coli BL21 pLysS; homodimer predicted; catalytic Lys267; primers imply N-terminus MTTTAMAP and C-terminus ETVVKQE

| Km (NhAAT [1]) | Km (NhAAT [2]) | SMILES |
| --- | --- | --- |
| 5.67 mM | – | N[C@@H](CCC(=O)O)C(=O)O [L-glutamic acid] |
| – | 6.16 mM | N[C@@H](CC(=O)O)C(=O)O [L-aspartic acid] |
